The values that follow come from ChEMBL document CHEMBL3392952, “Structure guided lead generation for M. tuberculosis thymidylate kinase (Mtb TMK): discovery of 3-cyanopyridone and 1,6-naphthyridin-2-one as potent inhibitors” (J Med Chem, 2015).

In series [1] the target is T1, Thymidylate kinase (Mycobacterium tuberculosis, UniProt P9WKE1).
T1 sequence (P9WKE1 whole entry): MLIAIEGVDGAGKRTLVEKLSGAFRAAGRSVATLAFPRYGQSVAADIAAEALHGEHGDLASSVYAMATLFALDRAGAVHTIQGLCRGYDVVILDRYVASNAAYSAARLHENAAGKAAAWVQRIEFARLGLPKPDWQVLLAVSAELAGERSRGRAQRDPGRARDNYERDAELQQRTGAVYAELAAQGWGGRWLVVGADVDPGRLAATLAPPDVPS
Briefly: Inhibition of Mycobacterium tuberculosis thymidylate kinase activity by pyruvate kinase-lactate dehydrogenase coupled assay.

Series [2] relates to Mycobacterium tuberculosis. Put plainly: Antitubercular activity against Mycobacterium tuberculosis assessed as growth inhibition […] by standard microdilution method. Format: functional. Background: Broth dilution looks for growth in wells or tubes with falling amounts of substance.
Series [3] deals with T2, Thymidylate kinase (Homo sapiens) (UniProt P23919).
T2 sequence (whole entry): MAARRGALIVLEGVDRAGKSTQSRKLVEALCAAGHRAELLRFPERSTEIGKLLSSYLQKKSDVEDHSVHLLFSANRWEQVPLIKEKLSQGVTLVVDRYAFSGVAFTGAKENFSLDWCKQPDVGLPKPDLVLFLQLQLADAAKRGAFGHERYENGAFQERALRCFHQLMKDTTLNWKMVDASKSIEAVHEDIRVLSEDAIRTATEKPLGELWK
Put plainly: Inhibition of human thymidylate kinase assessed as […] up to 200 uM.

Series [4] can be described thus: Dissociation constant, pKa of the compound. Format: physicochemical.
Series [5] concerns Haemophilus influenzae. Briefly: Inhibition of Haemophilus influenza thymidylate kinase.
The subject of series [6] is Staphylococcus aureus. Put plainly: Inhibition of Staphylococcus aureus thymidylate kinase.
In series [7] the test system is Escherichia coli. Briefly: Inhibition of Escherichia coli thymidylate kinase.

In brackets after ≈: the same amount, converted by molar mass. Activity calls are given as the source filed them.

With `CSc1cc(-c2cccs2)[nH]c(=O)c1C#N`, in series [1], the IC50 came out at 3600 nM.
As for `CC(C)c1ccc(COc2cccc(-c3cc([S+](C)[O-])c(C#N)c(=O)[nH]3)c2)cc1` (stereo not given), the IC50 in series [1] was 32 nM. Also, the MIC in series [2] is 2 µg/mL (≈ 4.92 µM).
In series [1], `CCCc1cc2[nH]c(=O)c(C#N)c(-c3ccccc3)c2c(C)n1` came in with a concentration for half-maximal inhibition (IC50) of 1000 nM. Moreover, in series [2], the MIC was more than 32 µg/mL.
`COc1ccccc1-c1cc(SC)c(C#N)c(=O)[nH]1`: the IC50 in series [1] is more than 50000 nM.
On to `COc1cccc(-c2cc(-c3ccc(NC(C)=O)cc3)c(C#N)c(=O)[nH]2)c1`, for which the IC50 in series [1] was determined as 430 nM.
In series [1], `CC(C)CCOc1cccc(-c2cc([S+](C)[O-])c(C#N)c(=O)[nH]2)c1` (stereo not given) had an IC50 of 330 nM. Besides, the MIC in series [2] came out at 4 µg/mL (≈ 11.6 µM).
Consider `CSc1cc(-c2cccs2)oc(=O)c1C#N`, for which, in series [1], the IC50 is more than 50000 nM.
Compound `COc1cccc(-c2cc(-c3cccc(N)c3)c(C#N)c(=O)[nH]2)c1` yielded a half-inhibitory concentration (IC50) in series [1] of 1200 nM.
For the compound `CCCc1cc2[nH]c(=O)c(C#N)c(-c3ccc(NS(C)(=O)=O)cc3)c2c(C)n1`, in series [1], inhibition was half-maximal at 2100 nM (IC50). Further, the MIC in series [2] was more than 32 µg/mL.
In the case of `N#Cc1c(-c2ccc(C(=O)O)cc2)c2c([nH]c1=O)-c1ccccc1CC2`, the midpoint of inhibition in series [1], the IC50, lay at 6 nM.
In series [1], `CSc1cc(-c2ccccn2)[nH]c(=O)c1C#N` registered an IC50 of 18000 nM.
For the compound `CS(=O)(=O)c1cc(-c2cccc(OCc3cccc(Cl)c3)c2)[nH]c(=O)c1C#N`, in series [1], the half-inhibitory concentration (IC50) came to 22 nM. In addition, the MIC in series [2] stood at 4 µg/mL (≈ 9.64 µM).
`CCc1cc2[nH]c(=O)c(C#N)c(-c3ccc(NS(C)(=O)=O)cc3)c2c(C)n1` registered an IC50 in series [1] of 200 nM. In addition, the MIC in series [2] was more than 32 µg/mL.
On to `CS(=O)(=O)NC(=O)c1ccc(-c2c3c([nH]c(=O)c2C#N)-c2ccccc2OC3)cc1`, for which the outcome in series [3] was inactive. Also, half-maximal inhibition in series [1] (IC50) required 5 nM. Further, the MIC in series [2] is more than 32 µg/mL. In addition, in series [4], the pKa was 3.9.
Take `CSc1cc(-c2ccccc2)nc(O)c1C#N`: half-maximal inhibition in series [1] (IC50) was put at 1900 nM.
In series [1], `CCNC(=O)Nc1ccc(-c2c3c([nH]c(=O)c2C#N)-c2cccc(OC)c2CC3)cc1` displayed an IC50 of 17 nM. Further, the MIC in series [2] is more than 32 µg/mL.
In the case of `CC(C)c1ccc(COc2cccc(-c3cc(-c4ccc(C(=O)O)cc4)c(C#N)c(=O)[nH]3)c2)cc1`, half-maximal inhibition in series [1] (IC50) was put at 6 nM.
With `COc1cccc(-c2cc(-c3cccnc3)c(C#N)c(=O)[nH]2)c1`, in series [1], the half-inhibitory concentration (IC50) came out at 2630 nM.
In turn, `C[S+]([O-])c1cc(-c2cccs2)[nH]c(=O)c1C#N` (stereo not given) had an IC50 in series [1] of 820 nM. In addition, in series [2], the MIC was 12 µg/mL (≈ 45.4 µM).
Take `N#Cc1c(-c2ccc(C(=O)O)cc2)c2c([nH]c1=O)-c1cccc(-c3cn[nH]c3)c1CC2`: the IC50 in series [1] worked out at 2 nM. Moreover, the MIC in series [2] was more than 32 µg/mL. For the same compound, the pKa in series [4] amounted to 4.4.
The compound `COc1cccc(-c2cc(-c3ccc(C(=O)O)cc3)c(C#N)c(=O)[nH]2)c1` returned a 50% inhibitory concentration (IC50) in series [1] of 420 nM.
Turning to `N#Cc1c(-c2ccc(C(=O)O)cc2)c2c([nH]c1=O)-c1cccc(O)c1CC2`, the result in series [3] was inactive. The IC50 in series [1] was 3 nM. Also, the MIC in series [2] was more than 32 µg/mL. Moreover, the pKa in series [4] came to 4.4.
Take `CCc1cc2[nH]c(=O)c(C)c(C)c2c(CC)n1`: the half-maximal inhibitory concentration (IC50) in series [1] came to 133000 nM.
Take `COc1ccc(-c2cc(SC)c(C#N)c(=O)[nH]2)cc1`: in series [1], the IC50 stood at 7700 nM.
The compound `CC(C)c1ccc(COc2cccc3c2CCc2c-3[nH]c(=O)c(C#N)c2-c2ccc(C(=O)O)cc2)cc1` returned a half-maximal inhibitory concentration (IC50) in series [1] of 1 nM. The MIC in series [2] is more than 32 µg/mL. For the same compound, the pKa in series [4] stood at 4.4.
For the compound `COc1cccc(-c2cc(-c3cccc(C(=O)O)c3)c(C#N)c(=O)[nH]2)c1`, 2730 nM corresponded to half-maximal inhibition in series [1] (IC50).
In the case of `N#Cc1c(-c2ccc(C(=O)NS(=O)(=O)c3ccccc3)cc2)c2c([nH]c1=O)-c1ccccc1OC2`, the midpoint of inhibition in series [1], the IC50, lay at 2 nM. Moreover, the MIC in series [2] is more than 32 µg/mL. The compound also yielded a pKa in series [4] of 5.
In turn, `CSc1cc(-c2cccc(Cl)c2)[nH]c(=O)c1C(N)=O` registered an IC50 in series [1] of 14300 nM.
On the same count and under the same terms, the result for `COc1cccc(-c2cc(-c3ccc(N)cc3)c(C#N)c(=O)[nH]2)c1` reads 1010 nM.
As for `C[S+]([O-])c1cc(-c2cccc(Br)c2)[nH]c(=O)c1C#N` (stereo not given), the outcome in series [5], in series [6] and in series [7] was inactive. For the same compound, the IC50 in series [1] is 140 nM. Also, the MIC in series [2] is 4 µg/mL (≈ 11.9 µM).
In the case of `C[S+]([O-])c1cc(-c2cccc(OC(F)(F)F)c2)[nH]c(=O)c1C#N` (stereo not given), the result in series [5], in series [3], in series [6] and in series [7] was inactive. Moreover, half-maximal inhibition in series [1] (IC50) required 240 nM. For the same compound, the minimal inhibitory concentration (MIC) in series [2] was 8 µg/mL (≈ 23.4 µM).
In the case of `CS(=O)(=O)c1c2c([nH]c(=O)c1C#N)-c1ccccc1OC2`, in series [1], the IC50 is 30000 nM. Moreover, the MIC in series [2] turned out to be 32 µg/mL (≈ 106 µM).
For the compound `COc1cccc(-c2nc(SC)c(C#N)c(=O)[nH]2)c1`, the concentration for half-maximal inhibition (IC50) in series [1] is 8000 nM.
Consider `COc1cccc2c1CCc1c-2[nH]c(=O)c(C#N)c1-c1ccc(C(=O)O)cc1`, for which the IC50 in series [1] turned out to be 5 nM. For the same compound, the MIC in series [2] is more than 32 µg/mL. The compound also showed a pKa in series [4] of 4.4.
`Cc1nccc2nc(O)c(C#N)cc12` had an IC50 in series [1] of 634000 nM.
Turning to `CCCc1cc2[nH]c(=O)ccc2c(C)n1`, half-maximal inhibition in series [1] (IC50) was put at 590000 nM.
Take `CCNC(=O)Nc1ccc(-c2cc(-c3cccc(OC)c3)[nH]c(=O)c2C#N)cc1`: the result in series [3] was inactive. This compound yielded an IC50 in series [1] of 250 nM.
`CCc1cc2[nH]c(=O)c(C#N)c(-c3ccccc3)c2c(C)n1` registered an IC50 in series [1] of 350 nM. The MIC in series [2] is more than 32 µg/mL.
In the case of `CSc1cc(-c2cccc(Cl)c2)[nH]c(=O)c1C#N`, in series [1], the IC50 worked out at 1900 nM.
In the case of `COc1cccc(-c2cc(SC)c(C#N)c(=O)[nH]2)c1`, the result in series [3] was inactive. In series [1], this compound registered an IC50 of 1500 nM.
For `CS(=O)(=O)c1cc(-c2cccc(Br)c2)[nH]c(=O)c1C#N`, inhibition in series [1] was half-maximal at 100 nM (IC50). Further, the MIC in series [2] stood at 8 µg/mL (≈ 22.7 µM).
In series [1], `COc1cccc(-c2cc(-c3ccc(C(=O)O)cc3)c(C)c(=O)[nH]2)c1` had an IC50 of 1200 nM.
In the case of `CS(=O)(=O)c1cc(-c2cccc(Br)c2)[nH]c(=O)c1`, the IC50 in series [1] is more than 25000 nM. In addition, the MIC in series [2] is more than 32 µg/mL.

By IC50 is commonly meant the concentration that gives 50% inhibition. High values mean weaker potency in that assay, low ones greater potency in that assay. As a reminder, the MIC is the smallest concentration in the dilution series that meets the test's criterion for growth inhibition. For orientation: pKa means the pH at which an ionisable group is half protonated. Low values mean a stronger acid or weaker base, high ones a weaker acid or stronger base.
